Assay type in all cases: cell-based
Series [1] concerns Acinetobacter baumannii 872842. Particulars: 872842. A digest of the protocol: (§1)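 Visible-growth endpoint after 18-20 h at 35° C defines the MIC (μg/mL). Setup: CLSI broth microdilution, MH-II cation-adjusted broth with P-80 at 0.002% final, inoculum of approximately 10^6 CFU/mL, two-fold serial peptide dilutions.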
Series [2] relates to Enterobacter cloacae 848840. As to conditions: 848840. A digest of the protocol: as §1
The test system of series [3] is Pseudomonas aeruginosa ATCC 27853. As to conditions: ATCC 27853. An outline of the steps: as §1
For series [4], the system named is Escherichia coli ATCC 25922. Particulars: ATCC 25922. An outline of the steps: as §1
Series [5] relates to Klebsiella pneumoniae 968733. As to conditions: 968733. An outline of the steps:
as §1

In a further series the test system is Escherichia coli 926415. Particulars: 926415. A digest of the protocol: as §1
Series [6] has as its system Acinetobacter baumannii DSM 30008. As to conditions: DSM 30008. An outline of the steps:
as §1

The subject of series [7] is Klebsiella pneumoniae SSI #3010. Particulars: SSI #3010. A digest of the protocol: as §1
Series [8] has as its system human red blood cells (hRBC). The experiment in a line: Hemolysis. Particulars: red cells of human, 1 h, 200. An outline of the steps: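 Percent hemolysis relative to 2% Triton X-100 (100%) and PBS/10% water (0%), from blank-corrected OD540 of diluted supernatants. Peptides tested at 200 μg/mL against 20% (v/v) washed human erythrocytes, 1 h, 37° C, shaking at 300 rpm.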

≈ marks a conversion by molar mass, not a printed value. Where a SMILES comes first, the peptide text is derived from it. Bridges are numbered along the chain shown (N, C = ends). Roman numbers before positions name the chains, in order. [ ]: non-standard residue; d: D form. The star is where a group is joined. Tle = CC(C)(C)[C@H](N)C(=O)O; Hiv = CC(C)[C@H](O)C(=O)O; dDab = NCC[C@@H](N)C(=O)O; hSer = N[C@@H](CCO)C(=O)O; NHCH(CH2OH)2 = OCC(CO)N*; Dab = NCC[C@H](N)C(=O)O; Dap = NC[C@H](N)C(=O)O; NHCH2CH2OH = OCCN*

Take `CC(=O)N[C@@H](Cc1ccc(O)cc1)C(=O)N[C@H]1CSSC[C@@H](C(=O)NC(CO)CO)NC(=O)[C@H](Cc2c[nH]c3ccccc23)NC(=O)[C@H](CO)NC(=O)[C@H](C(C)C)NC(=O)[C@H](CCO)NC(=O)[C@@H](CCN)NC(=O)[C@H](CCC(=O)N[C@@H](CCN)C(=O)N[C@H](C(=O)N[C@@H](CCN)C(=O)N[C@H]2CCNC(=O)[C@H]([C@@H](C)O)NC(=O)[C@H](CCN)NC(=O)[C@H](CCN)NC(=O)[C@H](CC(C)C)NC(=O)[C@@H](CC(C)C)NC(=O)[C@H](CCN)NC2=O)[C@@H](C)O)NC(=O)[C@H](CCN)NC(=O)[C@H](C(C)C)NC1=O` [Ex. 98] (I: Ac-YCV[Dab]E[dDab][hSer]VSWC-{NHCH(CH2OH)2} / II: [Dab]T[Dab][Dab][Dab][dL]L[Dab][Dab]T; disulfide I:2-I:11; amide I:5-II:N; lactam II:4-II:C): the MIC in [1] was 2 µg/mL (≈ 0.829 µM); in series [2], 2 µg/mL (≈ 0.829 µM); in series [3] it was 0.25 µg/mL (≈ 0.104 µM); in series [4], 0.125 µg/mL (≈ 0.0518 µM); in series [5] it was 4 µg/mL (≈ 1.66 µM); in the series with Escherichia coli 926415, 2 µg/mL (≈ 0.829 µM). Besides, the MIC in series [6] and in series [7] was 0.25 µg/mL (≈ 0.104 µM) in each case. In addition, the “Hemolysis at 200 μg/mL” value in [8] is listed as less than 1%.
For `CC(C)C[C@@H]1NC(=O)[C@@H](CC(C)C)NC(=O)[C@H](CCN)NC(=O)[C@@H](NC(=O)[C@H](CCN)NC(=O)[C@@H](NC(=O)[C@H](CCN)NC(=O)CC[C@@H]2NC(=O)[C@@H](NC(=O)[C@H](CO)NC(=O)[C@@H](NC(=O)[C@@H](O)C(C)C)[C@@H](C)O)CSSC[C@@H](C(=O)N[C@H](C(=O)N[C@@H](C)C(=O)N[C@@H](Cc3ccc(O)cc3)C(=O)NCCO)C(C)(C)C)NC(=O)[C@H](Cc3c[nH]c4ccccc34)NC(=O)[C@H](CCO)NC(=O)[C@@H](CCN)NC2=O)[C@@H](C)O)CCNC(=O)[C@H]([C@@H](C)O)NC(=O)[C@H](CCN)NC(=O)[C@H](CCN)NC1=O` [Ex. 236] (I: H-[Hiv]TSCE[dDab][hSer]WC[Tle]AY-NHCH2CH2OH / II: [Dab]T[Dab][Dab][Dab][dL]L[Dab][Dab]T; disulfide I:4-I:9; amide I:5-II:N; lactam II:4-II:C), the MIC turned out to be 2 µg/mL (≈ 0.823 µM) in series [1]; 1 µg/mL (≈ 0.412 µM) in series [2]; 0.25 µg/mL (≈ 0.103 µM) in series [3]; 0.25 µg/mL (≈ 0.103 µM) in [4]; 8 µg/mL (≈ 3.29 µM) in [5]; 2 µg/mL (≈ 0.823 µM) against Escherichia coli 926415. Moreover, the MIC in [6] and in series [7] was 0.25 µg/mL (≈ 0.103 µM) throughout. Further, in series [8], the “Hemolysis at 200 μg/mL” value is less than 1%.
For the molecule `CC(=O)N[C@H](C(=O)N[C@H]1CSSC[C@@H](C(=O)N[C@@H](CO)C(N)=O)NC(=O)[C@H](C(C)C)NC(=O)[C@H](CCC(=O)O)NC(=O)[C@H](Cc2c[nH]c3ccccc23)NC(=O)[C@H](CO)NC(=O)[C@@H](CCN)NC(=O)[C@H](CCC(=O)N[C@@H](CCN)C(=O)N[C@H](C(=O)N[C@@H](CN)C(=O)N[C@H]2CCNC(=O)[C@H]([C@@H](C)O)NC(=O)[C@H](CCN)NC(=O)[C@H](CCN)NC(=O)[C@H](CC(C)C)NC(=O)[C@@H](CC(C)C)NC(=O)[C@H](CCN)NC2=O)[C@@H](C)O)NC(=O)[C@H](CCCCN)NC(=O)[C@H](Cc2ccc(O)cc2)NC1=O)C(C)C` [Ex. 151] (I: Ac-VCYKE[dDab]SWEVCS-NH2 / II: [Dab]T[Dap][Dab][Dab][dL]L[Dab][Dab]T; disulfide I:2-I:11; amide I:5-II:N; lactam II:4-II:C), the MIC is 0.25 µg/mL (≈ 0.101 µM) in series [1]; 0.125 µg/mL (≈ 0.0506 µM) in [2]; 0.125 µg/mL (≈ 0.0506 µM) in series [3]; 0.03125 µg/mL (≈ 0.0127 µM) in series [4]; 1 µg/mL (≈ 0.405 µM) in [5]; 0.5 µg/mL (≈ 0.203 µM) against Escherichia coli 926415. Further, the MIC in series [6] and in [7] was 0.0625 µg/mL (≈ 0.0253 µM) in each case. In addition, the “Hemolysis at 200 μg/mL” value in series [8] is on record as less than 1%.

The values are drawn from US11629171B2, “Beta-hairpin peptidomimetics” (POLYPHOR AG, priority 2017, dated 2023).
